Data on 2 compounds can be found in patent US10118901B2 (priority 2013, dated 2018).

Common to all, as to type: cell-based, human
The test system of one assay is HL-60(TB).
For another assay, the system named is UACC-62. Description: NCI-60 screen at 10 μM: UACC-62. To be noted: Melanoma UACC-62; 10 μM single dose; 48 hrs. The method, then:
(§1) NL-101 and CY-102 was sent to U.S. National Cancer Institute (NCI) for NCI 60-cell line screening using a single compound dose (10 μM).
(§2) The human tumor cell lines of the cancer screening panel were grown in RPMI 1640 medium containing 5% fetal bovine serum (5% FBS) and 2 mM L-glutamine. For a typical screening experiment, cells were inoculated into 96-well microtiter plates in 100 μL, at plating densities ranging from 5,000 to 40,000 cells/well depending on the doubling time of individual cell lines. After cell inoculation, the microtiter plates were incubated at 37° C., 5% CO2, 95% air, and 100% relative humidity for 24 h prior to addition of experimental compounds. […]
(§3) Following drug addition, the plates were incubated for an additional 48 hrs at 37° C., 5% CO2, 95% air, and 100% relative humidity. […] Bound stain was subsequently solubilized with 10 mM trizma base, and the absorbance was read on an automated plate reader at a wavelength of 515 nm. […]
(§4) Using the seven absorbance measurements [time zero, (Tz), control growth, (C), and test growth in the presence of drug at the 10 μM concentration levels (Ti)], percentage growth was calculated at each of the drug concentrations levels. Percentage growth inhibition was calculated as: [(Ti−Tz)/(C−Tz)]×100 for which Ti>/=Tz or [(Ti−Tz)/Tz]×100 for which Ti<Tz.

A further assay has as its system PC-3. Description: NCI-60 screen at 10 μM: PC-3. The settings on record: Prostate Cancer PC-3; 10 μM single dose; 48 hrs. The protocol: as §1, §2, §3, §4
A further assay has as its system RPMI-8226. Briefly: NCI-60 screen at 10 μM: RPMI-8226. The settings on record: Leukemia RPMI-8226; 10 μM single dose; 48 hrs. The method, then: as §1, §2, §3, §4
The subject of a further assay is BT-549. Description: NCI-60 screen at 10 μM: BT-549. The settings on record: Breast Cancer BT-549; 10 μM single dose; 48 hrs. The method, then:
as §1, §2, §3, §4

For another assay, the system named is OVCAR-3. Description: NCI-60 screen at 10 μM: OVCAR-3. To be noted: Ovarian Cancer OVCAR-3; 10 μM single dose; 48 hrs. The protocol: as §1, §2, §3, §4
The next assay has as its system OVCAR-5. Briefly: NCI-60 screen at 10 μM: OVCAR-5. To be noted: Ovarian Cancer OVCAR-5; 10 μM single dose; 48 hrs. The protocol:
as §1, §2, §3, §4

The test system of another assay is HCT-116. Description: NCI-60 screen at 10 μM: HCT-116. To be noted: Colon Cancer HCT-116; 10 μM single dose; 48 hrs. The method, then:
as §1, §2, §3, §4

A further assay relates to MALME-3M. Briefly: NCI-60 screen at 10 μM: MALME-3M. To be noted: Melanoma MALME-3M; 10 μM single dose; 48 hrs. The method, then: as §1, §2, §3, §4
Another assay concerns UACC-257. Briefly: NCI-60 screen at 10 μM: UACC-257. To be noted: Melanoma UACC-257; 10 μM single dose; 48 hrs. The method, then: as §1, §2, §3, §4
A further assay concerns NCI/ADR-RES. Briefly: NCI-60 screen at 10 μM: NCI/ADR-RES. To be noted: Ovarian Cancer NCI/ADR-RES; 10 μM single dose; 48 hrs. The protocol: as §1, §2, §3, §4
Another assay concerns MDA-MB-231. Briefly: NCI-60 screen at 10 μM: MDA-MB-231. The settings on record: Breast Cancer MDA-MB-231; 10 μM single dose; 48 hrs. The method, then: as §1, §2, §3, §4
For another assay, the system named is UO-31. Briefly: NCI-60 screen at 10 μM: UO-31. To be noted: Renal Cancer UO-31; 10 μM single dose; 48 hrs. The method, then:
as §1, §2, §3, §4

In another assay the test system is A498. Briefly: NCI-60 screen at 10 μM: A498. To be noted: Renal Cancer A498; 10 μM single dose; 48 hrs. The protocol: as §1, §2, §3, §4
The next assay relates to SR. Description: NCI-60 screen at 10 μM: SR. The settings on record: Leukemia SR; 10 μM single dose; 48 hrs. The method, then: as §1, §2, §3, §4
A further assay has as its system HOP-92. Briefly: NCI-60 screen at 10 μM: HOP-92. The settings on record: NSCLC HOP-92; 10 μM single dose; 48 hrs. The protocol: as §1, §2, §3, §4
For a further assay, the system named is SK-MEL-5. Briefly: NCI-60 screen at 10 μM: SK-MEL-5. To be noted: Melanoma SK-MEL-5; 10 μM single dose; 48 hrs. The protocol: as §1, §2, §3, §4
A further assay relates to SNB-75. Description: NCI-60 screen at 10 μM: SNB-75. The settings on record: CNS Cancer (Glioma) SNB-75; 10 μM single dose; 48 hrs. The protocol:
as §1, §2, §3, §4

In another assay the test system is HT29. Briefly: NCI-60 screen at 10 μM: HT29. To be noted: Colon Cancer HT29; 10 μM single dose; 48 hrs. The protocol: as §1, §2, §3, §4
The next assay concerns T-47D. Description: NCI-60 screen at 10 μM: T-47D. The settings on record: Breast Cancer T-47D; 10 μM single dose; 48 hrs. The method, then: as §1, §2, §3, §4
The test system of another assay is DU-145. Description: NCI-60 screen at 10 μM: DU-145. The settings on record: Prostate Cancer DU-145; 10 μM single dose; 48 hrs. The method, then: as §1, §2, §3, §4
Another assay has as its system A549/ATCC. Briefly: NCI-60 screen at 10 μM: A549/ATCC. The settings on record: NSCLC A549/ATCC; 10 μM single dose; 48 hrs. The protocol:
as §1, §2, §3, §4

The next assay relates to RXF 393. Description: NCI-60 screen at 10 μM: RXF 393. The settings on record: Renal Cancer RXF 393; 10 μM single dose; 48 hrs. The protocol:
as §1, §2, §3, §4

The next assay relates to K-562. Briefly: NCI-60 screen at 10 μM: K-562. To be noted: Leukemia K-562; 10 μM single dose; 48 hrs. The protocol:
as §1, §2, §3, §4

Turning to `Cn1c(CCNCc2ccc(/C=C/C(=O)NO)cc2)nc2cc(N(CCCl)CCCl)ccc21` [CY-102], the Growth % with HL-60(TB) is −10.34%; in the assay with UACC-62, −69.24%; with PC-3 it was −1.86%; in the assay with RPMI-8226, 2.28%; in the assay with BT-549, −33.26%; in the assay on OVCAR-3, −55.02%. Moreover, the Growth % with OVCAR-5 is given as −3.75%; with HCT-116 it was −1.84%; with MALME-3M, −64.17%; in the assay on UACC-257, −36.39%; in the assay with NCI/ADR-RES, 17.78%; in the assay with MDA-MB-231, −35.33%. Further, the Growth % in the assay on UO-31 was −9.19%; with A498, −81.56%; in the assay on SR it was 0.09%; with HOP-92, −35.89%; in the assay with SK-MEL-5, −79.31%; with SNB-75, −48.45%. For the same compound, the Growth % is on record as −50.67% in the assay with HT29; −27.48% with T-47D; −16.06% in the assay on DU-145; −32.69% in the assay with A549/ATCC; −35.55% in the assay with RXF 393; 1.07% with K-562.

`Cn1c(CCCCCCC(=O)NO)nc2cc(N(CCCl)CCCl)ccc21` [NL-101]: the Growth % is 18.98% with HL-60(TB); 12.99% in the assay on UACC-62; 51.40% with PC-3; 49.23% with RPMI-8226; 79.21% with BT-549; 50.40% with OVCAR-3. Also, the Growth % with OVCAR-5 was determined as 66.28%; in the assay on HCT-116 it was 23.73%; with MALME-3M, 28.59%; in the assay with UACC-257, 33.75%; in the assay with NCI/ADR-RES, 77.80%; in the assay on MDA-MB-231, 72.24%. Moreover, the Growth % in the assay on UO-31 is 63.69%; in the assay with A498 it was 49.70%; in the assay on SR, 29.62%; with HOP-92, 22.07%; in the assay on SK-MEL-5 it was −6.55%; with SNB-75, 19.79%. Besides, the Growth % in the assay on HT29 is 37.10%; in the assay on T-47D it was −16.57%; in the assay with DU-145, 18.47%; with A549/ATCC, 43.54%; with RXF 393 it was 5.95%; in the assay with K-562, 31.63%.
